Measurements taken from patent US12083119B2, “Methods and compositions for treating viral or virally-induced conditions” (VIRACTA SUBSIDIARY, INC., priority 2010, dated 2024).

How the values were obtained:
P3HR1 cells [1] = type: cell-based, human; settings: for effective concentration: in the presence of GCV
Protocol: (§1) The induction of lytic phase was assayed in EBV-positive lymphoma cell lines exposed to different HDAC inhibitors (HDACi) for 24-48 hrs, then the expression of EBV TK and other EBV transcripts by RT-PCR analysis was quantified. To determine tumor cytotoxic activity of the combination of HDACi and GCV, EBV+ lymphoma cells were exposed to a range of concentrations of HDAC inhibitors and ganciclovir (GCV) for 3 days and then to GCV alone for another 3 days. Efficacy of a particular HDAC inhibitor in the combination treatment approach was then determined by enumerating living cells. A general experimental protocol is described below.
(§2) The EBV-positive B lymphoma cell line P3HR1 was used in the study. The P3HR1 cell line was originally derived from Burkitt's lymphoma patient. EBV maintains a latent state of replication in this cell line. These cells were maintained in RPMI 1640 with 10% fetal bovine serum containing 100 U penicillin per ml and 100 μg streptomycin per ml.
To test the sensitivity of EBV-positive lymphoma cells towards HDAC inhibitors, P3HR1 cells were treated with HDAC inhibitors in the presence of one anti-viral drug. At the end of the assay, the efficacy of the HDAC inhibitors was assessed by measuring the inhibition of cell growth compared to untreated cells.
(§3) Healthy, actively-growing P3HR1 cells were harvested and resuspended in fresh growth media. Cells were seeded in wells. Appropriate dilutions of HDAC inhibitors were added to certain wells, some of which received an anti-viral drug (such as GCV at 50 μM concentration). At 72 hrs, 800 μl of culture fluid was removed from each well. Wells were then refed with 1.0 ml fresh growth media without HDAC inhibitors. Fresh GCV solution was added to the wells that originally received GCV at the same initial concentration. On day 6, cell morphology was observed under microscope and viable cell counts in each individual wells were determined by trypan blue dye exclusion method using an automated cell counter (Countess, Invitrogen).

EBV TK = assay: Thymidine kinase expression assay (RT and real-time PCR of TK mRNA); type: cell-based, Epstein-Barr virus; design: TK expression: dose or concentration left out as unconfirmed
Protocol: To measure the relative level of TK mRNA in various total RNA preparations, reverse transcription and quantitative PCR using real time PCR technology was used. Five micrograms of total RNA was reverse-transcribed using random hexamer primers and Superscript III cDNA synthesis kit (Invitrogen). The cDNA was diluted to a final volume of 60 μl with sterile water, 8 μl of which was then used in each real time PCR reaction in an ABI 7500 Sequencher using SYBR-Green technology. Primers used for the amplification of TK were EBV-TK1-F: 5′-[…]-3′ (SEQ ID NO: 1); EBV-TK1-R: 5′-[…]-3′ (SEQ ID NO: 2). The β-actin mRNA levels in those samples were determined similarly using β-actin-specific primers Actin/hu-F: 5′-[…]-3′ (SEQ ID NO: 3); Actin/hu-R: 5′-[…]-3′ (SEQ ID NO: 4). The relative level of TK expression in a sample was calculated following normalization of β-actin expression level.
as §1
P3HR1 cells were seeded in 60 mm plates containing 3×10^6 cells in 3 ml of fresh growth media. Appropriate concentrations of HDAC inhibitors were added to the plate and cells were incubated in the presence of HDAC inhibitors for 6 h, 24 h, 48 h, or as needed. Cells were harvested by centrifugation and washed once in cold PBS. Total cellular RNA was then extracted. To measure the relative level of TK mRNA in various total RNA preparations, reverse transcription and quantitative PCR using real time PCR analysis were used. See, Ghosh, S. K., Forman, L. W., Akinsheye, I., Perrine, S. P., Faller, D. V.: Short discontinuous sodium butyrate exposure efficiently sensitizes latently EBV infected cells towards nucleoside analogue-mediated growth inhibition, Blood Cells Mol. Diseases (2007), 38:57-65. The relative level of TK expression in a sample was calculated following normalization of β-actin expression level.

HIV-1 = settings: OD, converted to pg of protein
Protocol: Virus production (p24 release) was examined in an HIV-1-infected monocyte line. Cells were treated or not treated with HDAC-inhibitors and other compounds. P24 release expressed as optical density (“OD”) (FIG. 13), and then converted to pg of protein (FIG. 14). […] DMSO was vehicle for some of the compounds tested.

P3HR1 cells [2] = type: cell-based, human; settings: then GCV for up to 6 days
P3HR1 cells [3] = assay: Titration / toxicity of HDAC inhibitors alone on P3HR1 cells; type: cell-based, human
Protocol: as §3

P3HR1 cells [4] = type: cell-based, human
Protocol: as §2, with “throughout these assays.” for “in the study.”, “Cells” for “These cells”, “ml. […] Viable cell counts were measured and toxicity was expressed as percentage of cell growth compared to untreated cells. As shown in FIG. 2A and FIG. 2B, PCV was less toxic to the cells compared to GCV.” for “ml.”

EBV-TK = assay: Induction of EBV-TK in EBV-immortalized B-cells and patient-derived tumor cells; type: cell-based, Epstein-Barr virus; settings: for expression of viral thymidine kinase and other viral protein kinases: EBV-infected lymphocytes
Excerpt: In some embodiments, inducing agents include arginine butyrate and/or other histone deacetylase inhibitors. […] This expression of a viral gene can be used as a point for attack by anti-viral agents, allowing for treatment of latent infections.
Treatment of patients with viral-associated tumors such as EBV with inducing agents such as arginine butyrate, to induce the expression of EBV-TK/EBV-PK, and GCV, to eliminate EBV-TK/EBV-PK expressing tumor cells, is an effective, non-toxic therapy. […] Without wishing to be bound by theory, it is believed that just the presence of the EBV genome in latent form would make the tumor susceptible to this combination protocol.

Compound: Cc1[nH]c2ccccc2c1CCNCc1ccc(/C=C/C(=O)NO)cc1 [LBH589]
- concentration with activity in combination with GCV comparable to NaB at 1.0 mM (P3HR1 cells [1]): 50 nM
- effective concentration (P3HR1 cells [1]): 50 to 100 nM
- EBV-TK expression in the tumor cells (EBV TK): strongly induced
- TK expression level (EBV TK; compared to optimum concentration of NaB (2.5 mM)): quite high
- virus production (p24 release) (HIV-1): active

Compound: Nc1ccccc1NC(=O)c1ccc(CNC(=O)OCc2cccnc2)cc1 [MS-275, 3-pyridinylmethyl [[4-[[(2-aminophenyl)amino]carbonyl]phenyl]methyl] carbamate]
- concentration with activity in combination with GCV comparable to NaB at 1.0 mM (P3HR1 cells [1]): 500 nM
- effective concentration (P3HR1 cells [1]): 200 to 500 nM
- EBV-TK expression in the tumor cells (EBV TK): strongly induced
- concentration strongly inducing TK expression (EBV TK): ≥ 500 nM
- time post treatment at which TK expression was induced (EBV TK): 6 h
- exposure sensitizing cells to GCV-mediated effects as efficiently as 72 hr continuous treatment (P3HR1 cells [2]): 24 h

Compound: CCCC(=O)[O-].[Na+] [NaB, sodium butyrate]
- reduction of growth compared to cells treated with NaB or GCV alone (P3HR1 cells [1]; NaB+GCV): up to 50%
- optimal concentration (P3HR1 cells [1]; combination with GCV): 1.0 mM
- cell growth, HDAC inhibitor alone (P3HR1 cells [3]; NaB at concentration higher than 1.0 mM): reduces cell growth to a significant degree

Compound: Nc1nc2c(ncn2CCC(CO)CO)c(=O)[nH]1 [PCV, penciclovir]
- toxicity (percentage of cell growth compared to untreated cells) (P3HR1 cells [4]): less toxic
- inhibition of cell growth at higher concentrations (P3HR1 cells [4]; PCV at higher concentrations, combination with Na-butyrate): did not change significantly

Compound: O=C(/C=C/c1cccc(S(=O)(=O)Nc2ccccc2)c1)NO [PXD101]
- TK expression (EBV TK): high level

Compound: CCC(Nc1ncnc2ccccc12)C(=O)O (stereo not drawn) [RB3]
- virus production (p24 release) (HIV-1): levels similar to the control of vehicle alone

Compound: O=C(CCCCCCC(=O)Nc1ccccc1)NO [SAHA, suberoyl anilide hydroxamic acid]
- TK expression level (EBV TK; compared with efficient concentrations of butyrate (1.0 mM)): higher level

Compound: CCC(C)(C)C(=O)O [ST20, 2,2-dimethyl butyrate]
- virus production (p24 release) (HIV-1): levels similar to the control of vehicle alone

Compound: O=C(CCCCCN1C(=O)c2cccc3cccc(c23)C1=O)NO [Scriptaid]
- effect with GCV in reducing cell growth (P3HR1 cells [1]; especially at 500 nM and 1 μM): strong synergistic effect

Compound: CCCC(CCC)C(=O)O [VA, valproic acid]
- activity in combination with GCV on cell growth / cell killing (P3HR1 cells [1]): very similar activity
- efficiency in inducing TK expression (EBV TK; compared with NaB): less efficient than NaB

Compound: CCC(=O)CCCCC[C@@H]1NC(=O)[C@H]2CCCCN2C(=O)[C@H]([C@@H](C)CC)NC(=O)[C@H](Cc2cn(OC)c3ccccc23)NC1=O [apicidin]
- reduction of cell growth over cells treated with apicidin alone (P3HR1 cells [1]; 100 nM and 200 nM, with GCV): 40-50%
- toxicity to the cells (P3HR1 cells [3]; 500 nM): very toxic
- concentration quite toxic to the cells (P3HR1 cells [3]; apicidin alone): higher than 200 nM
- virus production (p24 release) (HIV-1): active

Compound: CC(C)C(N)=O [isobutyramide]
- expression of viral thymidine kinase and other viral protein kinases (EBV-TK): enhance expression

Compound: CCCCCCCC(=O)SCC/C=C/[C@@H]1CC(=O)NCc2nc(cs2)C2=N[C@@](C)(CS2)C(=O)N[C@@H](C(C)C)C(=O)O1 [largazole]
- virus production (p24 release) (HIV-1): active

Compound: CCCCCCCCCCCCCC(=O)O[C@@H]1[C@@H](C)[C@@]2(O)[C@@H](C=C(CO)C[C@]3(O)C(=O)C(C)=C[C@@H]23)[C@@H]2C(C)(C)[C@]12OC(C)=O [phorbol myristate acetate]
- virus production (p24 release) (HIV-1): active

Compound: CC(C=CC(=O)NO)=CC(C)C(=O)c1ccc(N(C)C)cc1 (stereo not drawn) [trichostatin A, 7-[4-(dimethylamino)phenyl]-N-hydroxy-4,6-dimethyl-7-oxohepta-2,4-dienamide]
- virus production (p24 release) (HIV-1): active

Compound: Oxamflatin
- activity in combination with GCV on cell growth / cell killing (P3HR1 cells [1]): synergistic activity
- activity level (growth suppression) with GCV (P3HR1 cells [1]; at 200 nM, compared with 1.0 mM NaB): more than what typically seen with 1.0 mM NaB

Compound: arginine butyrate
- EBV-TK activity (EBV-TK; EBV-immortalized B-cells and patient-derived tumor cells): induces EBV-TK activity
- expression of viral thymidine kinase and other viral protein kinases (EBV-TK): enhance expression
- virus production (p24 release) (HIV-1): active
